Six compounds from ChEMBL document CHEMBL4393686, “InCl3 mediated heteroarylation of indoles and their derivatization via CH activation strategy: Discovery of 2-(1H-indol-3-yl)-quinoxaline derivatives as a new class of PDE4B selective inhibitors for arthritis and/or multiple sclerosis” (Eur J Med Chem, 2019) can be followed below.

Data set [1] concerns the target 3',5'-cyclic-AMP phosphodiesterase 7B (Homo sapiens) (UniProt Q9NP56). Briefly: Inhibition of recombinant N-terminal GST tagged and C-terminal His-tagged human PDE7B (109-ens aa) expressed in Sf9 cells using FAM-cAMP as substrate at 0.1xIC50 incubated for 60 mins by fluorescence plate reader analysis.
Data set [2] concerns the target High affinity cAMP-specific and IBMX-insensitive 3',5'-cyclic phosphodiesterase 8A (Homo sapiens) (UniProt O60658). In words: Inhibition of recombinant N-terminal GST-tagged full length human PDE8A1 expressed in Sf9 cells using FAM-cAMP as substrate at 0.1xIC50 incubated for 60 mins by fluorescence plate reader analysis.
In data set [3] the target is 3',5'-cyclic-AMP phosphodiesterase 7B (Homo sapiens) (UniProt Q9NP56). In words: Inhibition of recombinant N-terminal GST tagged and C-terminal His-tagged human PDE7B (109-ens aa) expressed in Sf9 cells using FAM-cAMP as substrate at 1xIC50 incubated for 60 mins by fluorescence plate reader analysis.
The target of data set [4] is High affinity cAMP-specific and IBMX-insensitive 3',5'-cyclic phosphodiesterase 8A (Homo sapiens) (UniProt O60658). In words: Inhibition of recombinant N-terminal GST-tagged full length human PDE8A1 expressed in Sf9 cells using FAM-cAMP as substrate at 1xIC50 incubated for 60 mins by fluorescence plate reader analysis.
Data set [5] has the same target. Briefly: Inhibition of recombinant N-terminal GST-tagged full length human PDE8A1 expressed in Sf9 cells using FAM-cAMP as substrate at 10xIC50 incubated for 60 mins by fluorescence plate reader analysis.
Data set [6] concerns the target High affinity 3',5'-cyclic-AMP phosphodiesterase 7A (Homo sapiens) (UniProt Q13946). Briefly: Inhibition of recombinant N-terminal GST tagged human PDE7A1 (122-end aa) expressed in Sf9 cells using FAM-cAMP as substrate at 0.1xIC50 incubated for 60 mins by fluorescence plate reader analysis.
For data set [7] the target is unchanged. In words: Inhibition of recombinant N-terminal GST tagged human PDE7A1 (122-end aa) expressed in Sf9 cells using FAM-cAMP as substrate at 1xIC50 incubated for 60 mins by fluorescence plate reader analysis.
For data set [8] the target is unchanged. Briefly: Inhibition of recombinant N-terminal GST tagged human PDE7A1 (122-end aa) expressed in Sf9 cells using FAM-cAMP as substrate at 10xIC50 incubated for 60 mins by fluorescence plate reader analysis.
The target of data set [9] is 3',5'-cyclic-AMP phosphodiesterase 4B (Homo sapiens, UniProt Q07343). In words: Inhibition of recombinant His-tagged PDE4B (unknown origin) expressed in Sf9 cells using cAMP as substrate preincubated for 15 mins followed by substrate addition and incubated for 1 hr by PDELight HTS cAMP phosphodiesterase Kit based luminometry.
The nature of data set [10]: Selectivity for recombinant His-tagged PDE4B (unknown origin) expressed in Sf9 cells over PDE4D2 (unknown origin). The conditions noted are these: Homo sapiens.
A short description of data set [11]: Toxicity in zebrafish embryo assessed as effect in liver formation at 3000 uM. Also noted: species or system Danio rerio. The note with it: in vivo.
Data set [12] in a line: Toxicity in zebrafish embryo assessed as effect in swim bladder formation at 3000 uM. Also noted: species or system Danio rerio. The conditions noted are these: in vivo.
Data set [13] is described as follows: Toxicity in zebrafish embryo assessed as effect in lower jaw formation at 3000 uM. Also noted: species or system Danio rerio. The note with it: in vivo.
Data set [14] is described as follows: Toxicity in zebrafish embryo assessed as effect in intestine formation at 3000 uM. The data set is classed as tissue-based, Danio rerio. The note with it: in vivo.
Data set [15] is described as follows: Toxicity in zebrafish embryo assessed as effect in heart formation at 3000 uM. The data set is classed as tissue-based, Danio rerio. The conditions noted are these: in vivo.
Data set [16] is described as follows: Toxicity in zebrafish embryo assessed as effect in upper jaw formation at 3000 uM. The arrangement: species or system Danio rerio. The note with it: in vivo.
Data set [17] can be described thus: Toxicity in zebrafish embryo assessed as effect in brain formation at 3000 uM. The data set is classed as tissue-based, Danio rerio. The note with it: in vivo.
The nature of data set [18]: Toxicity in zebrafish embryo assessed as effect in fin formation at 3000 uM. Also noted: species or system Danio rerio. The note with it: in vivo.
A short description of data set [19]: Toxicity in zebrafish embryo assessed as effect in tail formation at 3000 uM. The arrangement: species or system Danio rerio. The conditions noted are these: in vivo.
Data set [20] is described as follows: Toxicity in zebrafish embryo assessed as effect in notochord formation at 3000 uM. The arrangement: species or system Danio rerio. The conditions noted are these: in vivo.
The nature of data set [21]: Toxicity in zebrafish embryo assessed as effect in somite formation at 3000 uM. The arrangement: species or system Danio rerio. The note with it: in vivo.
Data set [22] is described as follows: Toxicity in zebrafish embryo assessed as change in body shape at 3000 uM. Also noted: species or system Danio rerio. The note with it: in vivo.
Data set [23] has as its target cGMP-inhibited 3',5'-cyclic phosphodiesterase 3A (Homo sapiens) (UniProt Q14432). In words: Inhibition of recombinant PDE3A (unknown origin) using FAM-cAMP as substrate at 0.1xIC50 incubated for 60 mins by fluorescence plate reader analysis.
Data set [24] deals with cGMP-inhibited 3',5'-cyclic phosphodiesterase 3B (Homo sapiens) (UniProt Q13370). In words: Inhibition of recombinant N-terminal GST-tagged human PDE3B (592-end aa) expressed in Sf9 cells using FAM-cAMP as substrate at 0.1xIC50 incubated for 60 mins by fluorescence plate reader analysis.
For data set [25], the target named is cGMP-inhibited 3',5'-cyclic phosphodiesterase 3A (Homo sapiens) (UniProt Q14432). Briefly: Inhibition of recombinant PDE3A (unknown origin) using FAM-cAMP as substrate at 1xIC50 incubated for 60 mins by fluorescence plate reader analysis.
Data set [26] addresses cGMP-inhibited 3',5'-cyclic phosphodiesterase 3B (Homo sapiens) (UniProt Q13370). In words: Inhibition of recombinant N-terminal GST-tagged human PDE3B (592-end aa) expressed in Sf9 cells using FAM-cAMP as substrate at 1xIC50 incubated for 60 mins by fluorescence plate reader analysis.
In data set [27] the target is cGMP-inhibited 3',5'-cyclic phosphodiesterase 3A (Homo sapiens) (UniProt Q14432). In words: Inhibition of recombinant PDE3A (unknown origin) using FAM-cAMP as substrate at 10xIC50 incubated for 60 mins by fluorescence plate reader analysis.
Data set [28] addresses cGMP-inhibited 3',5'-cyclic phosphodiesterase 3B (Homo sapiens) (UniProt Q13370). In words: Inhibition of recombinant N-terminal GST-tagged human PDE3B (592-end aa) expressed in Sf9 cells using FAM-cAMP as substrate at 10xIC50 incubated for 60 mins by fluorescence plate reader analysis.
In data set [29] the target is Dual specificity calcium/calmodulin-dependent 3',5'-cyclic nucleotide phosphodiesterase 1A (Homo sapiens) (UniProt P54750). Briefly: Inhibition of recombinant N-terminal GST-tagged full-length human PDE1A1 expressed in Sf9 cells using FAM-cAMP as substrate at 0.1xIC50 incubated for 60 mins by fluorescence plate reader analysis.
Data set [30] addresses Dual specificity calcium/calmodulin-dependent 3',5'-cyclic nucleotide phosphodiesterase 1B (Homo sapiens) (UniProt Q01064). In words: Inhibition of recombinant N-terminal GST tagged full length human PDE1B expressed in Sf9 cells using FAM-cAMP as substrate at 0.1xIC50 incubated for 60 mins by fluorescence plate reader analysis.
The target of data set [31] is Dual specificity calcium/calmodulin-dependent 3',5'-cyclic nucleotide phosphodiesterase 1C (Homo sapiens) (UniProt Q14123). In words: Inhibition of recombinant N-terminal GST tagged human PDE1C (2 to 634 aa) expressed in Sf9 cells at 0.1xIC50 using FAM-cAMP as substrate incubated for 60 mins by fluorescence plate reader analysis.
For data set [32], the target named is Dual specificity calcium/calmodulin-dependent 3',5'-cyclic nucleotide phosphodiesterase 1A (Homo sapiens) (UniProt P54750). In words: Inhibition of recombinant N-terminal GST-tagged full-length human PDE1A1 expressed in Sf9 cells using FAM-cAMP as substrate at 1xIC50 incubated for 60 mins by fluorescence plate reader analysis.
Data set [33] deals with Dual specificity calcium/calmodulin-dependent 3',5'-cyclic nucleotide phosphodiesterase 1B (Homo sapiens) (UniProt Q01064). Briefly: Inhibition of recombinant N-terminal GST tagged full length human PDE1B expressed in Sf9 cells using FAM-cAMP as substrate at 1xIC50 incubated for 60 mins by fluorescence plate reader analysis.
Data set [34] addresses Dual specificity calcium/calmodulin-dependent 3',5'-cyclic nucleotide phosphodiesterase 1C (Homo sapiens) (UniProt Q14123). Briefly: Inhibition of recombinant N-terminal GST tagged human PDE1C (2 to 634 aa) expressed in Sf9 cells at 1xIC50 using FAM-cAMP as substrate incubated for 60 mins by fluorescence plate reader analysis.
Data set [35] deals with Dual specificity calcium/calmodulin-dependent 3',5'-cyclic nucleotide phosphodiesterase 1A (Homo sapiens) (UniProt P54750). In words: Inhibition of recombinant N-terminal GST-tagged full-length human PDE1A1 expressed in Sf9 cells using FAM-cAMP as substrate at 10xIC50 incubated for 60 mins by fluorescence plate reader analysis.
Data set [36] addresses Dual specificity calcium/calmodulin-dependent 3',5'-cyclic nucleotide phosphodiesterase 1B (Homo sapiens) (UniProt Q01064). In words: Inhibition of recombinant N-terminal GST tagged full length human PDE1B expressed in Sf9 cells using FAM-cAMP as substrate at 10xIC50 incubated for 60 mins by fluorescence plate reader analysis.
The target in data set [37] is Dual specificity calcium/calmodulin-dependent 3',5'-cyclic nucleotide phosphodiesterase 1C (Homo sapiens) (UniProt Q14123). Briefly: Inhibition of recombinant N-terminal GST tagged human PDE1C (2 to 634 aa) expressed in Sf9 cells at 10xIC50 using FAM-cAMP as substrate incubated for 60 mins by fluorescence plate reader analysis.

Chain of High affinity cAMP-specific and IBMX-insensitive 3',5'-cyclic phosphodiesterase 8A (Homo sapiens) (O60658 whole entry): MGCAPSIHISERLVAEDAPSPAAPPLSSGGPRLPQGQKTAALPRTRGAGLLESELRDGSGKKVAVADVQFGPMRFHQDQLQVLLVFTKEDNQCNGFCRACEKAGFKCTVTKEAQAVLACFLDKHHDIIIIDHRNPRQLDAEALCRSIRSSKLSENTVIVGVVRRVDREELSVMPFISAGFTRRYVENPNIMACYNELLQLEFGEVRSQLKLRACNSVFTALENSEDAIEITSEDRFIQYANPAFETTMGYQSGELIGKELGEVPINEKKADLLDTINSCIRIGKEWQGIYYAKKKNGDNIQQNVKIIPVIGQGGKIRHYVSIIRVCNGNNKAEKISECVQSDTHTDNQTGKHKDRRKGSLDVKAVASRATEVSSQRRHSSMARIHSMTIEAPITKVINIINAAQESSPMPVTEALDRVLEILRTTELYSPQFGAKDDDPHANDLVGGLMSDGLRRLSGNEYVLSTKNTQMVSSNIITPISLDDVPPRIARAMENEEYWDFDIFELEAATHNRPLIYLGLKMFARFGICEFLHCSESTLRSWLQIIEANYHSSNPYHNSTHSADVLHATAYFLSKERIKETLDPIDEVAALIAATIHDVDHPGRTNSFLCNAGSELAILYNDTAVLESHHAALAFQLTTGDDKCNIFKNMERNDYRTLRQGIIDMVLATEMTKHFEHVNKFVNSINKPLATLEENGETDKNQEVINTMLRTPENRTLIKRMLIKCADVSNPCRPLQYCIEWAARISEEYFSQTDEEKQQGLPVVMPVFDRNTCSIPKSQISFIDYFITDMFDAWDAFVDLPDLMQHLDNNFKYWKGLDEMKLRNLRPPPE
Chain of cGMP-inhibited 3',5'-cyclic phosphodiesterase 3A (Homo sapiens) (Q14432 whole entry): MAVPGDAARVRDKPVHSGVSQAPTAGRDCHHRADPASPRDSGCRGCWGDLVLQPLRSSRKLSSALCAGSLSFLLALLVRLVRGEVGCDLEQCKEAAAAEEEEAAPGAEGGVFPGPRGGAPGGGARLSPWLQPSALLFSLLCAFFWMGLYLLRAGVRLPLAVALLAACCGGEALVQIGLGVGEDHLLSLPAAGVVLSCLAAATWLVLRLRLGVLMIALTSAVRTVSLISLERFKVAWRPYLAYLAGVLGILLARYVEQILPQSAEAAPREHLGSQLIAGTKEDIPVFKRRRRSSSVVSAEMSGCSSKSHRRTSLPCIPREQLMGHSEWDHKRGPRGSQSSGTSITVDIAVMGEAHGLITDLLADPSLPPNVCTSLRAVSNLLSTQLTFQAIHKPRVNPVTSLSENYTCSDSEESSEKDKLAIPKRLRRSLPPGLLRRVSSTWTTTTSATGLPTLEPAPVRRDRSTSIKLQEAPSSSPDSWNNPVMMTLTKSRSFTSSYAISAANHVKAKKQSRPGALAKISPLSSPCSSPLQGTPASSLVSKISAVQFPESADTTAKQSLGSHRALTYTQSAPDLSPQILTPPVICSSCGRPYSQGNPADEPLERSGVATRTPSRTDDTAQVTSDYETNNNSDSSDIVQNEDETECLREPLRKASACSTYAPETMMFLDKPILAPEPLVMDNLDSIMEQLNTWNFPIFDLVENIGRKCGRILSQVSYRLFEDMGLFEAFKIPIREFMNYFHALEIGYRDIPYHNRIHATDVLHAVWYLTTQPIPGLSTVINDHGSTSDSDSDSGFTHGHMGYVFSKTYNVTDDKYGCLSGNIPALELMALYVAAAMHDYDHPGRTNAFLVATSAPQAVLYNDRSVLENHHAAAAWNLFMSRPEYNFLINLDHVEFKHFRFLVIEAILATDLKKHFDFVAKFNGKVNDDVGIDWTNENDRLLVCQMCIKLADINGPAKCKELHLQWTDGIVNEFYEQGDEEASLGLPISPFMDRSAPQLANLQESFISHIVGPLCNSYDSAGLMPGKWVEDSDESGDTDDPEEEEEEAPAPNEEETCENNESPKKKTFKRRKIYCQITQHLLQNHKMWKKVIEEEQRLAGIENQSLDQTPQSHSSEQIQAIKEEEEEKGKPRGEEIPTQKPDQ
Chain of Dual specificity calcium/calmodulin-dependent 3',5'-cyclic nucleotide phosphodiesterase 1A (Homo sapiens) (P54750 whole entry): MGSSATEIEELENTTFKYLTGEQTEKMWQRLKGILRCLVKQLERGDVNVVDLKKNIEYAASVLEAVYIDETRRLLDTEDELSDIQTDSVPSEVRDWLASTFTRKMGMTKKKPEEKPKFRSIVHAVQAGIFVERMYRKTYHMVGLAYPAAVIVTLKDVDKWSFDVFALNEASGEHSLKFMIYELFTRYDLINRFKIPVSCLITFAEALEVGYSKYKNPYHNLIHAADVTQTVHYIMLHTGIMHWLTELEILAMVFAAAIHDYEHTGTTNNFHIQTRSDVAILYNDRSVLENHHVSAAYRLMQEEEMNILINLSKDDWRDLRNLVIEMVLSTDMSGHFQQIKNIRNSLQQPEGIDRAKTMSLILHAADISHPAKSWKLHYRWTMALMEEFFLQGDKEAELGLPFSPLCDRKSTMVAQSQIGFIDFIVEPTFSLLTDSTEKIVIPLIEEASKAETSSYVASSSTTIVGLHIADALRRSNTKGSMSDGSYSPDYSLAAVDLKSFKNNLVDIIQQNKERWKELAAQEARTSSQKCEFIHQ
Chain of Dual specificity calcium/calmodulin-dependent 3',5'-cyclic nucleotide phosphodiesterase 1B (Homo sapiens) (Q01064 whole entry, the tested form may be a part): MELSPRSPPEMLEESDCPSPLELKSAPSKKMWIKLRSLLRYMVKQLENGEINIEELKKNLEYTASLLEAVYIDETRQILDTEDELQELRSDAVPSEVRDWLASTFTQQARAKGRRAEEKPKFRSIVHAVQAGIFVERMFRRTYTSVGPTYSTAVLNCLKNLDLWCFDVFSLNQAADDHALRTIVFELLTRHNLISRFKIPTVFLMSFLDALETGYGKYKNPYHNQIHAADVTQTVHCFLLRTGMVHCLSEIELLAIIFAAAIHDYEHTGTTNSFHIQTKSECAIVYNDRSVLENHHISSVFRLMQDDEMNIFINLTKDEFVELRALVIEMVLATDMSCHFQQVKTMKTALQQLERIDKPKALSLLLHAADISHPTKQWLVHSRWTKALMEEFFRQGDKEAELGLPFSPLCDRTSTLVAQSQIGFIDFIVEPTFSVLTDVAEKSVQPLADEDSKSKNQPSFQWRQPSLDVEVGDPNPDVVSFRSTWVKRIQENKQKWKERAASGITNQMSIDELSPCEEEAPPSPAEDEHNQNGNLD
Chain of Dual specificity calcium/calmodulin-dependent 3',5'-cyclic nucleotide phosphodiesterase 1C (Homo sapiens) (Q14123 whole entry, the tested form may be a part): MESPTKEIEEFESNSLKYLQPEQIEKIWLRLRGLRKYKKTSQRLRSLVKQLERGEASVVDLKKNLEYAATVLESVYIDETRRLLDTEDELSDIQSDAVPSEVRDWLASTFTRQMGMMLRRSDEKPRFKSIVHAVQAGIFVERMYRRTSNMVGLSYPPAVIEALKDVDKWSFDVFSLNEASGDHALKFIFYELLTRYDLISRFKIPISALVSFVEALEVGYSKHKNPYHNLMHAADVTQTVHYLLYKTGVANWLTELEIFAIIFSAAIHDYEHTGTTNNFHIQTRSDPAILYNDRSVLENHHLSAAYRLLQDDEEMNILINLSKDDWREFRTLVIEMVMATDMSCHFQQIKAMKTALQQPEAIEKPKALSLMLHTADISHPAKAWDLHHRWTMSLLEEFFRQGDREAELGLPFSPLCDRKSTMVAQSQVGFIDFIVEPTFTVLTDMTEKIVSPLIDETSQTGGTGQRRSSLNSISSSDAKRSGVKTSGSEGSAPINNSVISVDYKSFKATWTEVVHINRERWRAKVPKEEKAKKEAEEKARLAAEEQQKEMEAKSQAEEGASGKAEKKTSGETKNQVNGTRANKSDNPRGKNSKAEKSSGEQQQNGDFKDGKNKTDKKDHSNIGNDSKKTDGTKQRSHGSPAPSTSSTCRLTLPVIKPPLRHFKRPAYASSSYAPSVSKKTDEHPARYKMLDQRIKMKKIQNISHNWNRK
Chain of High affinity 3',5'-cyclic-AMP phosphodiesterase 7A (Homo sapiens) (Q13946 whole entry): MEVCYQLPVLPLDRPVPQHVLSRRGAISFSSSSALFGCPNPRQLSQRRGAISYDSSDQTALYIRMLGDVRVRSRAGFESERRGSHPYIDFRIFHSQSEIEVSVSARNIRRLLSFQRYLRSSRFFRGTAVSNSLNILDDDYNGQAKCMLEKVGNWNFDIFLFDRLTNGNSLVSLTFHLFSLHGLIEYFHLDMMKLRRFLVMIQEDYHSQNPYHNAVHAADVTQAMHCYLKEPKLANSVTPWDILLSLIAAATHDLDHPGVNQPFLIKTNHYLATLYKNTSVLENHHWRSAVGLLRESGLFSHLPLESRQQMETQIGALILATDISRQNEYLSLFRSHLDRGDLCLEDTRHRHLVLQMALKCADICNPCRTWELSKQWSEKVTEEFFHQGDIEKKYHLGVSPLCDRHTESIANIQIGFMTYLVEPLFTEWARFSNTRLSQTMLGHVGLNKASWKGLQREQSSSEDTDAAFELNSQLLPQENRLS
Chain of 3',5'-cyclic-AMP phosphodiesterase 7B (Homo sapiens) (Q9NP56 whole entry): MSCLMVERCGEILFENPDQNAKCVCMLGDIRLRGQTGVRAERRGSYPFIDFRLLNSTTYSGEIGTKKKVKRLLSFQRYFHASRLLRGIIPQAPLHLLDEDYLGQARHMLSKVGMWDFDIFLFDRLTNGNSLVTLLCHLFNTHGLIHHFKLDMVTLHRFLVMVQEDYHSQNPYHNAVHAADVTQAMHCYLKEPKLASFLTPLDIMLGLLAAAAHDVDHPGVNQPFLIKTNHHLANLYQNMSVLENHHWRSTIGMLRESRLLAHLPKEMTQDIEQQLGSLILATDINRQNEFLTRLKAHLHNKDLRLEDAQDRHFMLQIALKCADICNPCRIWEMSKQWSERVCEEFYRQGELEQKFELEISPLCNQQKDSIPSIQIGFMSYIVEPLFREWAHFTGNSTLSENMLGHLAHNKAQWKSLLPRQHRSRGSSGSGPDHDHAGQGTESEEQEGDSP

Consider `OCCN(CCO)c1nc(N2CCCCC2)c2nc(N(CCO)CCO)nc(N3CCCCC3)c2n1`, for which the inhibition – broadly, the change of the read-out against control, counted positive when it falls – in [1] was found to be 3%; in data set [2] it was 13%; in data set [3] it was 48%; in [4] it was 55%; in data set [5], 88%.

For the compound `Cc1ccc([N+](=O)[O-])cc1S(=O)(=O)N(C)C`, the inhibition came to 10% in data set [6], 49% in data set [7] and 88% in data set [8].

With `Cc1cc2c(s1)N(Cc1cc3cc(Br)ccc3n1S(C)(=O)=O)c1ccccc1N=C2N1CCN(C)CC1`, the IC50 (in general, the concentration that gives 50% inhibition) in data set [9] turned out to be 1.1 µM. Also, the Selectivity ratio in data set [10] is > 10.

As for `CCC1(c2ccccc2)C(=O)NC(=O)NC1=O` [PHENOBARBITAL], the Activity result in data set [11], in data set [12], in data set [13], in [14], in data set [15] and in data set [16] was “Toxic” in each case. For the same compound, the Activity entry in [17], in data set [18], in [19], in [20], in data set [21] and in data set [22] was “Toxic” each time.

With `CN(C(=O)CCCOc1ccc2[nH]c(=O)ccc2c1)C1CCCCC1`, the inhibition in data set [23] worked out at 9%; in data set [24] it was 17%; in data set [25], 39%; in data set [26] it was 61%; in [27], 85%; in [28], 94%.

For `COc1ccc(Cc2nc(O)c3c(C)nc([C@@H](CCCc4ccccc4)[C@@H](C)O)n3n2)cc1OC`, the inhibition worked out at 7% in [29]; 16% in [30]; 18% in [31]; 52% in data set [32]; 55% in data set [33]; 52% in [34]. Besides, the inhibition worked out at 87% in data set [35], 86% in data set [36] and 86% in data set [37].
